Assay results from the NIST ThermoML archive (doi:10.1016/j.tca.2013.02.010).
Numbers after ± are expanded uncertainties.

Assays:
[1] = 101.33 kPa, Liquid, Pycnometric method
[2] = refractive index (Na D-line) (dimensionless); conditions: 298.15 K; 101.33 kPa; Liquid; Standard Abbe refractometry
[3] = xn = mol fraction of the nth substance listed; conditions: 308.15 K, 101 kPa, Liquid, Direct dilatometry
[4] = excess molar enthalpy (molar enthalpy of mixing); xn = mol fraction of the nth substance listed; conditions: 101 kPa, Liquid, Flow calorimetry

NC=O [formamide]
[1]
Conditions	mass density [kg/m3]
298.15 K	1129.04 ± 1.3
308.15 K	1120.45 ± 1.3

Conditions	refractive index
[2]	1.4461 ± 0.0008

NC=O [formamide] + CC(C)O
[3]
Conditions	excess molar volume [m3/mol]
x1 = 0.0455	-3.2e-08 ± 2e-09
x1 = 0.1021	-6.4e-08 ± 3e-09
x1 = 0.1327	-7.9e-08 ± 3e-09
x1 = 0.1725	-1.05e-07 ± 3e-09
x1 = 0.2155	-1.34e-07 ± 4e-09
x1 = 0.2692	-1.69e-07 ± 4e-09
x1 = 0.3269	-2.06e-07 ± 5e-09
x1 = 0.3535	-2.27e-07 ± 5e-09
x1 = 0.3867	-2.48e-07 ± 5e-09
x1 = 0.4245	-2.71e-07 ± 6e-09
x1 = 0.485	-3e-07 ± 6e-09
x1 = 0.5191	-3.13e-07 ± 7e-09
x1 = 0.5729	-3.28e-07 ± 7e-09
x1 = 0.6237	-3.32e-07 ± 7e-09
x1 = 0.6951	-3.31e-07 ± 7e-09
x1 = 0.7543	-3.11e-07 ± 7e-09
x1 = 0.7907	-2.9e-07 ± 6e-09
x1 = 0.825	-2.61e-07 ± 6e-09
x1 = 0.8735	-2e-07 ± 5e-09
x1 = 0.8999	-1.71e-07 ± 4e-09
x1 = 0.9331	-1.18e-07 ± 3e-09
x1 = 0.9745	-5.1e-08 ± 2e-09

[4]
Conditions	excess molar enthalpy [kcal/mol]
298.15 K, x1 = 0.056	0.0588 ± 0.0012
298.15 K, x1 = 0.073	0.0736 ± 0.0012
298.15 K, x1 = 0.099	0.0963 ± 0.0012
298.15 K, x1 = 0.125	0.111 ± 0.00143
298.15 K, x1 = 0.162	0.134 ± 0.00143
298.15 K, x1 = 0.2	0.149 ± 0.00167
298.15 K, x1 = 0.253	0.167 ± 0.00167
298.15 K, x1 = 0.291	0.1747 ± 0.00167
298.15 K, x1 = 0.329	0.1809 ± 0.00167
298.15 K, x1 = 0.4	0.1855 ± 0.00167
298.15 K, x1 = 0.468	0.1845 ± 0.00167
298.15 K, x1 = 0.537	0.179 ± 0.00167
298.15 K, x1 = 0.597	0.1699 ± 0.00167
298.15 K, x1 = 0.662	0.157 ± 0.00167
298.15 K, x1 = 0.702	0.1477 ± 0.00143
298.15 K, x1 = 0.728	0.139 ± 0.00143
298.15 K, x1 = 0.766	0.126 ± 0.00143
298.15 K, x1 = 0.812	0.108 ± 0.00143
298.15 K, x1 = 0.849	0.0913 ± 0.0012
298.15 K, x1 = 0.878	0.077 ± 0.0012
298.15 K, x1 = 0.901	0.0636 ± 0.0012
298.15 K, x1 = 0.941	0.0406 ± 0.000956
308.15 K, x1 = 0.0666	0.0798 ± 0.0012
308.15 K, x1 = 0.0916	0.103 ± 0.00143
308.15 K, x1 = 0.1166	0.124 ± 0.00143
308.15 K, x1 = 0.1501	0.1475 ± 0.00143
308.15 K, x1 = 0.1812	0.165 ± 0.00167
308.15 K, x1 = 0.229	0.1886 ± 0.00167
308.15 K, x1 = 0.2702	0.2022 ± 0.00191
308.15 K, x1 = 0.3082	0.2141 ± 0.00191
308.15 K, x1 = 0.3666	0.2239 ± 0.00191
308.15 K, x1 = 0.425	0.2297 ± 0.00215
308.15 K, x1 = 0.4958	0.2297 ± 0.00215
308.15 K, x1 = 0.5624	0.2239 ± 0.00191
308.15 K, x1 = 0.629	0.2094 ± 0.00191
308.15 K, x1 = 0.6832	0.1919 ± 0.00191
308.15 K, x1 = 0.7124	0.1809 ± 0.00167
308.15 K, x1 = 0.7503	0.164 ± 0.00167
308.15 K, x1 = 0.7958	0.14 ± 0.00143
308.15 K, x1 = 0.8374	0.115 ± 0.00143
308.15 K, x1 = 0.8708	0.0932 ± 0.0012
308.15 K, x1 = 0.8874	0.0805 ± 0.0012
308.15 K, x1 = 0.9082	0.0674 ± 0.0012
308.15 K, x1 = 0.954	0.0337 ± 0.000956

NC=O [formamide] + CCCO
[3]
Conditions	excess molar volume [m3/mol]
x1 = 0.0615	-3e-08 ± 2e-09
x1 = 0.1052	-4.3e-08 ± 2e-09
x1 = 0.165	-6e-08 ± 3e-09
x1 = 0.1937	-6.9e-08 ± 3e-09
x1 = 0.2453	-7.8e-08 ± 3e-09
x1 = 0.2856	-9.1e-08 ± 3e-09
x1 = 0.3317	-1.05e-07 ± 3e-09
x1 = 0.372	-1.12e-07 ± 3e-09
x1 = 0.3949	-1.25e-07 ± 3e-09
x1 = 0.4236	-1.35e-07 ± 4e-09
x1 = 0.4639	-1.48e-07 ± 4e-09
x1 = 0.5213	-1.61e-07 ± 4e-09
x1 = 0.5903	-1.71e-07 ± 4e-09
x1 = 0.6394	-1.71e-07 ± 4e-09
x1 = 0.6765	-1.68e-07 ± 4e-09
x1 = 0.7225	-1.59e-07 ± 4e-09
x1 = 0.7686	-1.42e-07 ± 4e-09
x1 = 0.8031	-1.23e-07 ± 3e-09
x1 = 0.8492	-1e-07 ± 3e-09
x1 = 0.8837	-7.8e-08 ± 3e-09
x1 = 0.9124	-5.5e-08 ± 2e-09
x1 = 0.9411	-3.3e-08 ± 2e-09

[4]
Conditions	excess molar enthalpy [kcal/mol]
298.15 K, x1 = 0.0624	0.0614 ± 0.0012
298.15 K, x1 = 0.0881	0.082 ± 0.0012
298.15 K, x1 = 0.1208	0.105 ± 0.00143
298.15 K, x1 = 0.1479	0.123 ± 0.00143
298.15 K, x1 = 0.1832	0.141 ± 0.00143
298.15 K, x1 = 0.2231	0.156 ± 0.00167
298.15 K, x1 = 0.254	0.166 ± 0.00167
298.15 K, x1 = 0.3018	0.1757 ± 0.00167
298.15 K, x1 = 0.3775	0.1809 ± 0.00167
298.15 K, x1 = 0.452	0.1788 ± 0.00167
298.15 K, x1 = 0.4832	0.1771 ± 0.00167
298.15 K, x1 = 0.5364	0.1678 ± 0.00167
298.15 K, x1 = 0.5953	0.158 ± 0.00167
298.15 K, x1 = 0.6672	0.1441 ± 0.00143
298.15 K, x1 = 0.6958	0.137 ± 0.00143
298.15 K, x1 = 0.7521	0.122 ± 0.00143
298.15 K, x1 = 0.7958	0.109 ± 0.00143
298.15 K, x1 = 0.8443	0.0913 ± 0.0012
298.15 K, x1 = 0.8956	0.0686 ± 0.0012
298.15 K, x1 = 0.9208	0.0559 ± 0.0012
298.15 K, x1 = 0.9526	0.0361 ± 0.000956
298.15 K, x1 = 0.9666	0.028 ± 0.000956
308.15 K, x1 = 0.0582	0.0631 ± 0.0012
308.15 K, x1 = 0.079	0.0825 ± 0.0012
308.15 K, x1 = 0.104	0.103 ± 0.00143
308.15 K, x1 = 0.1374	0.125 ± 0.00143
308.15 K, x1 = 0.1624	0.141 ± 0.00143
308.15 K, x1 = 0.2082	0.164 ± 0.00167
308.15 K, x1 = 0.2416	0.1769 ± 0.00167
308.15 K, x1 = 0.275	0.1869 ± 0.00167
308.15 K, x1 = 0.3332	0.1979 ± 0.00191
308.15 K, x1 = 0.4124	0.202 ± 0.00191
308.15 K, x1 = 0.4666	0.2036 ± 0.00191
308.15 K, x1 = 0.5082	0.1986 ± 0.00191
308.15 K, x1 = 0.5666	0.1919 ± 0.00191
308.15 K, x1 = 0.625	0.1769 ± 0.00167
308.15 K, x1 = 0.679	0.164 ± 0.00167
308.15 K, x1 = 0.725	0.15 ± 0.00167
308.15 K, x1 = 0.775	0.131 ± 0.00143
308.15 K, x1 = 0.8166	0.113 ± 0.00143
308.15 K, x1 = 0.8666	0.0877 ± 0.0012
308.15 K, x1 = 0.9124	0.0621 ± 0.0012
308.15 K, x1 = 0.9416	0.0425 ± 0.000956
308.15 K, x1 = 0.9582	0.0306 ± 0.000956

CCCO [propan-1-ol]
[1]
Conditions	mass density [kg/m3]
298.15 K	799.76 ± 0.7
308.15 K	791.48 ± 0.71

Conditions	refractive index
[2]	1.3835 ± 0.0008

CC(C)O [propan-2-ol]
[1]
Conditions	mass density [kg/m3]
298.15 K	781.25 ± 0.67
308.15 K	772.3 ± 0.68

Conditions	refractive index
[2]	1.3753 ± 0.0008
